Test results taken from PubChem BioAssay (NCI).
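Dose response: 5 concentrations. Exposure: 48 h. Format: 96-well plates. Endpoint: linear interpolation; highest concentration if not reached. GI50 = concentration required for 50% inhibition of growth. TGI is the concentration that stops growth completely.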

The compounds below were run on PC-3 prostate (assay: NCI anticancer screen, dose series, 48 h).
Compound `CCOC(=O)C1=C(C)N(N)C(=S)NC1c1ccc(C)cc1` (configuration not stated) has a GI50 of 32.8 µM and a TGI of over 100 µM.
`O=C(O)c1ccccc1-c1ccccc1C(=O)Nc1ccc2c(c1)Cc1cc(F)ccc1-2` was tested, and the TGI was 68.2 µM.

The compounds below were run on SN12C renal (assay: NCI anticancer screen, dose series, 48 h).
For `Cc1n(Cc2ccc3ccccc3c2)cc[n+]1Cc1ccc2ccccc2c1`, the GI50 was 1.22 µM and the TGI was 10.2 µM.
Work on `O=C(O)Cc1c(O)ccc2ccccc12` yielded a TGI of over 100 µM.
`O=C1/C(=C\c2cccn2Cc2ccccc2)c2ccccc2N1c1c(Cl)cccc1Cl` was tested, and the GI50 was over 100 µM and the TGI was over 100 µM.
`Cc1sc2nc(NCCc3c[nH]c4ccc(Cl)cc34)[nH]c(=O)c2c1C` showed a GI50 of 2.38 µM and a TGI of 6.59 µM.
For `COc1cc(/C=C2\C(=O)Nc3ccc(F)cc32)cc(OC)c1OC`, the GI50 was 51.8 µM and the TGI was over 100 µM.
`C#C[C@]1(O)CC[C@H]2[C@@H]3CC=C4c5sc(Nc6ccccc6)nc5CC[C@]4(C)[C@H]3CC[C@@]21C` gave a GI50 of 2.86 µM and a TGI of 11.1 µM.
For `O=C(O)c1c(-c2nccc3ccccc23)[nH]c(-c2ccccc2)c1S(=O)(=O)O`, the TGI was over 100 µM.
With `COc1ccc(/C=c2/sc3n(c2=O)C(c2ccc(OC)c(OC)c2)C2=C(N=3)c3cc(F)ccc3OC2)cc1` (configuration not stated) the GI50 was 3.45 µM and the TGI was over 54.9 µM.
For `O=C(O)c1cc(O)c2c(c1)C(C1c3cc(C(=O)O)cc(O)c3C(=O)c3c(OC4OC(CO)C(O)C(O)C4O)cccc31)c1cccc(OC3OC(CO)C(O)C(O)C3O)c1C2=O` (configuration not stated), the GI50 was over 100 µM and the TGI was over 100 µM.
`O=C(CN(C1CCCCC1)C1CCCCC1)Nc1ccc(S(=O)(=O)c2ccc(NC(=O)CN(C3CCCCC3)C3CCCCC3)cc2)cc1` showed a GI50 of 1.33 µM and a TGI of 2.73 µM.
With `O=c1[nH]c2cc(Cl)ccc2n1C1CCN(CCCC(c2ccc(F)cc2)c2ccc(F)cc2)CC1` the GI50 was 1.78 µM and the TGI was 3.27 µM.
`Cc1c[n+](Cc2ccc3ccccc3c2)cn1Cc1ccc2ccccc2c1` showed a GI50 of 1.67 µM and a TGI of 3.33 µM.
With `Nc1nc(Br)nc2c1ncn2C1CC(O)C(CO)O1` (configuration not stated) the GI50 was 0.744 µM and the TGI was over 100 µM.
`Nc1nc(Nc2ccccc2)c2ncn(Cc3cc4c(cc3Br)OCO4)c2n1` was tested, and the GI50 was 0.407 µM and the TGI was over 100 µM.
With `CCOC(=O)N1CCN(C(=O)c2ccc(C(F)(F)F)nc2Nc2cc(Cl)ccc2C)CC1` the GI50 was 36.8 µM and the TGI was over 100 µM.
With `Cc1ccc(Nc2nc(N)c(C(=O)c3ccc(C#N)cc3)s2)cc1` the GI50 was 0.617 µM and the TGI was over 100 µM.
`O=C1c2ccn(CCCCNC(CO)(CO)CO)c2C(=O)c2c1c(O)c1ccccc1c2O` showed a GI50 of 4.39 µM and a TGI of 8.83 µM.
For `COc1ccc(-c2cc(-c3cccn3C)c(C#N)c(N)n2)cc1OC`, the GI50 was 66.9 µM and the TGI was over 100 µM.
In the case of `CN1CCc2c(Sc3ccc(C(=O)NO)cc3)c3ccccc3n2C1`, the GI50 is reported as 2.61 µM and the TGI is reported as 9.78 µM.
Work on `COc1ccc(CNc2c3ccccc3nc3ccccc23)cc1OC` yielded a GI50 of 2.36 µM and a TGI of 8.54 µM.
With `CN(C)c1ccc2nc3ccc(=O)cc-3sc2c1` the GI50 was 0.865 µM and the TGI was over 79 µM.
In the case of `CC(=O)c1c(CBr)n([O-])c2ccccc2[n+]1=O`, the GI50 is reported as 14.1 µM and the TGI is reported as 27.3 µM.
Work on `O=C(Nc1ccc(Cl)cc1F)c1cc(Br)ccc1O` yielded a GI50 of 0.788 µM and a TGI of 8.58 µM.
`Nc1c(C(=O)N/N=C/c2ccc(-c3ccc(Cl)cc3)o2)cnn1-c1ccnc2c(C(F)(F)F)cccc12` was tested, and the GI50 was over 100 µM and the TGI was over 100 µM.
In the case of `CCN(CC)CCNCC(=O)Oc1ccc(/C=C/C(=O)CC(=O)/C=C/c2ccc(OC(=O)CNCCN(CC)CC)c(OC)c2)cc1OC`, the GI50 is reported as 3.32 µM and the TGI is reported as 79.6 µM.
`O=C(O)c1cccc(OCCO)c1` showed a TGI of over 100 µM.
Work on `COc1ccc(C2C(C#N)=C(N)OC3=C2COc2ccc(F)cc23)cc1OC` (configuration not stated) yielded a GI50 of 20.8 µM and a TGI of 89.4 µM.
For `CCOC(=O)C1=C(C)N(N)C(=S)NC1c1ccc(C)cc1` (configuration not stated), the GI50 was over 100 µM and the TGI was over 100 µM.
`O=C(O)c1ccccc1-c1ccccc1C(=O)Nc1ccc2c(c1)Cc1cc(F)ccc1-2` showed a TGI of 45.5 µM.
